MIC data for 1 compound are collected here from ChEMBL document CHEMBL4346683 (Eur J Med Chem, 2019).

In brackets after ≈: the same amount, converted by molar mass.

The assay has as its system Mycobacterium tuberculosis. Nature of the assay: Antibacterial activity against multidrug resistant Mycobacterium tuberculosis. Type of assay: functional.

As for `CCCCCCCCCCS(=O)(=O)CC(N)=O`, the MIC lay in the range of 0.75 to 1.5 µg/mL (≈ 2.85 to 5.69 µM).

Broadly, the MIC is the least concentration at which growth counts as inhibited.
